{"source": "patent US4996227A", "about": "“3-(heteroarylalkyene)- and 3-(arylalkylene)-2,4(3H,5H)-heterocyclic diones as cancer chemotherapy drugs” (priority 1989, dated 1991)", "key": {"[1]": {"test_system": "KS62 strain stem-cell human leukemia cells", "experiment": "Inhibition of human leukemia cell growth in vitro, as done in Example 3", "format": "cell-based", "conditions": "Homo sapiens", "method": "(§1) A conventionally available cell line (K562) derived from human chronic granulocytic leukemia was employed in an in vitro procedure. The leukemia cell line was cultured in a suspension of RPMI 1640 plus 10% fetal calf serum. All initial cell concentrations for the cultures were 0.65 times 10^5 cells/ml. Four separate suspension cultures were employed with the first suspension culture having no additions. The second suspension culture included 100 microliters of the solvent DMSO per 10 ml of culture (control). The third culture contained 1 ug/ml of 3[[5-methyl-2 thienyl]methylene]-2, 4 (3H, 5H) furandione and the fourth culture contained 1 ug/ml of 3[[3-methyl-2-thienyl]methylene]-2, 4 (3H, 5H) furandione. The cell concentration of each of the four cultures was determined. After three days and again after five days.\nIn this example, aliquots of 1.0, 5.0 and 10.0 mcg/ml of each of the family compounds was prepared and assayed against KS62 strain stem-cell human leukemia cells in an in vitro procedure as done in Example 3 above."}, "[2]": {"test_system": "healthy mice", "experiment": "Toxicology testing in healthy mice: deaths / LD50", "format": "in vivo", "conditions": "i.p.", "method": "(§2) The purpose of this example was to determine approximate toxicity of the compound 3[(5-methyl-2-thienyl) methylene]-2,4(3H,5H)-furandione in healthy mice. The in vivo concentrations employed in the example were selected by using the in vitro results in the Human Tumor Stem Cell Assay as a guide. The compound was given to the mice by means of intra-peritoneal injection. In addition to a control group which was injected with the appropriate carrier solution without drug, three test groups with calculated plasma concentrations of 1, 10 and 100 mcg/ml (low, medium and high concentrations) were prepared. Based upon the results from Table 1, the three test groups represent low, medium and high concentrations of drug dosages. The highest concentration of 100 mcg/ml is about 10 times the predicted effective dose (in vivo) of tumoricidal activity. Each group contained eight animals. Blood was extracted from four animals in each group two days after the intraperitoneal injection and routine hematology (i.e., a hemoglobin concentration, a white blood cell count, and a neutrophil count) procedures were performed.\nHalf of the animals in each group were sacrificed after one week (Day 7), and the remaining animals in each group were sacrificed after two weeks (Day 14). Routine hematology was performed at the time of sacrifice."}, "[3]": {"test_system": "K562 cells (human chronic granulocytic leukemia)", "experiment": "K562 human leukemia cell suspension culture, cell concentration", "format": "cell-based", "conditions": "1 ug/ml", "method": "In this example, 1 mcg/ml of 3[[5-methyl-2-thienyl]methylene]2, 4 (3H, 5H) furandione was compared to 1 mcg/ml of 3[[3-methyl-2-thienyl]methylene]2, 4 (3H, 5H) furandione.\nas §1"}, "[4]": {"test_system": "healthy mice", "experiment": "Toxicology testing in healthy mice: pathological evaluation", "format": "in vivo", "method": "as §2\nAs previously stated, half of the animals in each group were sacrificed after one week (Day 7), and the remaining animals were sacrificed after two weeks (Day 14). […]"}, "[5]": {"test_system": "human tumors", "experiment": "Human Tumor Stem Cell Assay, summary over the tumor panel", "format": "cell-based", "conditions": "for activity at 1 µg/mL: Homo sapiens, 1.0 mcg/ml, 1 h", "description": "The in vitro Human Tumor Stem Cell Assay procedure described as follows has several advantages for testing the effectiveness of chemotherapy drugs such as the 3-(heteroarylalkylene)-2,4(3H,5H)-furandiones. The first advantage is that fresh tumor cells from a variety of tumor types were used rather than a small number of cell lines which have undergone severe selection pressures as they are passed in vitro. The second advantage is that only the anchorage-independent tumor cells will form colonies in soft agar so that any non-malignant cells present in the sample will not form colonies. Perhaps the most important advantage, however, is the emphasis on cells which have the ability to form colonies. These cells, which are generally called stem cells, usually comprise only a small percentage of all tumor cells. They are thought to be the most important cells for growth and distant spread of a tumor. In particular, these cells have the potential to leave the primary tumor and form new tumors at distant sites (called metastases). It is the effectiveness against these very important stem cells that the Human Tumor Stem Cell Assay measures.\nOne of the 3-(heteroarylalkylene)-2,4(3H,5H)-furandione compounds, 3-[(5-methyl-2-thienyl) methylene]-2,4(3H,5H)-furandione was evaluated against a series of 10 human tumors in the in vitro Human Tumor Cell Assay, along with conventional and standard chemotherapy agents.\nIn the procedure, a single cell suspension was prepared from tumors excised from patients during therapeutic or diagnostic surgical procedures. The human tumor cells were exposed to known anticancer drugs or to [(5-methyl-2-thienyl)methylene]-2,4 (3H, 5H)-furandione at a low (0.2 mcg/ml) or a high (1.0 mcg/ml) concentration for one hour. […] The suspension was washed with tissue culture medium to remove the drug.\nThe suspension was then cultured in a double soft agar suspension. Control cells which had been treated identically, except for exposure to the drugs, were also cultured. After one to two weeks, both the tumor cells and the control cells formed colonies in the soft agar which were enumerated under a microscope. The number of colonies grown from the drug-treated cells was compared to the number of colonies grown from the control cells, and the percentage growth after exposure to the drug was calculated.\nThe results are illustrated in Table 1, wherein the various numbers indicate the percentage of growth. For example, a small number like 6 means that the number of colonies is only 6% of the number without addition of the compound. On the other hand, a large number like 120 means that the number of colonies is 20% greater with the compound than without. […]"}}, "note": "Read-outs that look alike come from different tables or passages of the source."}
{"smiles": "Cc1ccc(C=C2C(=O)COC2=O)s1", "note": "[Compound 4, 3[(5-methyl-2-thienyl)methylene]2,4(3H,5H)-furandione]", "values": [{"measurement": "inhibition at 1 µg/mL", "setting": "[1]; 1.0 mcg/ml", "value": 32, "unit": "%"}, {"measurement": "inhibition at 5 µg/mL", "setting": "[1]; 5.0 mcg/ml", "value": 97, "unit": "%"}, {"measurement": "inhibition at 10 µg/mL", "setting": "[1]; 10.0 mcg/ml", "value": 100, "unit": "%"}, {"measurement": "deaths due to the compound", "setting": "[2]; 1, 10, 100 mcg/ml calculated plasma, testing period", "value": "no deaths"}, {"measurement": "LD50", "setting": "[2]; as calculated plasma concentration", "value": "> 100", "unit": "µg/mL"}, {"measurement": "effect on leukemia culture", "setting": "[3]", "value": "very effective against the leukemia culture as demonstrated by the remarkable decrease in cell concentration"}, {"measurement": "Cell Conc.", "setting": "[3]; 3 Days", "value": 70000, "unit": "mL⁻¹"}, {"measurement": "Cell Conc.", "setting": "[3]; 5 Days", "value": 50000, "unit": "mL⁻¹"}, {"measurement": "pathology of organs, bone, brain, etc.", "setting": "[4]; all dose groups, 7 or 14 days", "value": "not remarkably altered within the testing period"}, {"measurement": "pathology of organs, bone, etc., vs low concentration and control groups", "setting": "[4]; high concentrations", "value": "do not appear to affect any of the organs, bone, etc. of the test animals to any lesser or greater degree than the low concentration drug group or the control group"}, {"measurement": "activity at 1 µg/mL", "setting": "[5]; five of nine tumors, read-out: growth, borderline sensitive tumors", "value": "30 to 50", "unit": "%"}, {"measurement": "activity at 1 µg/mL", "setting": "[5]; four of nine tumors, read-out: growth, sensitive tumors", "value": "0 to 30", "unit": "%"}, {"measurement": "peak plasma concentration at which compound should be effective in vivo", "setting": "[5]; by analogy with other chemotherapy drugs", "value": 10, "unit": "µg/mL"}, {"measurement": "activity against human solid tumors in vitro", "setting": "[5]; one hour exposure, 1 mcg/ml", "value": "extremely active against a wide variety of human solid tumors in vitro"}]}
